Columns and labels:
CTGF gene expression = assay: Evaluation II: TGF-β-induced gene expression of fibrosis-related factors in NHLF cells: CTGF; assay type: cell-based, human; conditions: 30 μM test substance, 200 μg/mL pirfenidone, 30 μM DEX, 1.0 μM TPCA-1 or 10 μM FP 2 hours, then TGF-β 0.5 ng/mL 4 hours, n = 4
Protocol: (§1) NHLF cells were sown so as to make their amount 5×10^4 cells/well to each well of a 12-well plate and incubated to an extent of 80% confluent in a medium where fibroblast growth medium 2 supplement mix (FGM-2 SingleQuots, Lonza) was added to a fibroblast basal medium (FBM, Lonza). After that, incubation was conducted for 2 hours in a DMEM medium containing 30 μM of a test substance, 200 μg/mL of pirfenidone, 30 μM of dexamethasone (DEX), 1.0 μM of TPCA-1 or 10 μM of fluticasone propionate (FP) and, after TGF-β was added thereto so as to make its final concentration 0.5 ng/mL, incubation was carried out for 4 hours more.
(§2) With regard to the extraction of RNA from NHLF cells, the synthesis of cDNA from RNA and the action of the test substance to gene expression of fibrosis-related factors [CFGF, TGF-β1, fibronectin and Col 1], the tests were carried out in the same manners as in (2) and (3) of the above Test Example 3.

TGF-β1 gene expression = assay: Evaluation II: TGF-β-induced gene expression of fibrosis-related factors in NHLF cells: TGF-β1; assay type: cell-based, human; conditions: 30 μM test substance, 200 μg/mL pirfenidone, 30 μM DEX, 1.0 μM TPCA-1 or 10 μM FP 2 hours, then TGF-β 0.5 ng/mL 4 hours, n = 4
Protocol: as §1, §2

[1] = test system: fibronectin gene expression; assay: Evaluation II: TGF-β-induced gene expression of fibrosis-related factors in NHLF cells: fibronectin; assay type: cell-based, human; conditions: 30 μM test substance, 200 μg/mL pirfenidone, 30 μM DEX, 1.0 μM TPCA-1 or 10 μM FP 2 hours, then TGF-β 0.5 ng/mL 4 hours, n = 4
Protocol: as §1, §2

Col 1 gene expression = assay: Evaluation II: TGF-β-induced gene expression of fibrosis-related factors in NHLF cells: Col 1; assay type: cell-based, human; conditions: 30 μM test substance, 200 μg/mL pirfenidone, 30 μM DEX, 1.0 μM TPCA-1 or 10 μM FP 2 hours, then TGF-β 0.5 ng/mL 4 hours, n = 4
Protocol: as §1, §2

[2] = test system: mice where pulmonary fibrosis was induced by bleomycin; assay: Lung wet weight increase of mice where pulmonary fibrosis was induced by bleomycin; assay type: in vivo; conditions: ICR male mice, bleomycin 2 mg/kg i.v. 5 days; test substance 50 mg/kg or pirfenidone 200 mg/kg per os twice daily for 2 weeks; normal control 205, diseased control 303
Protocol: Bleomycin (2 mg/kg) was repeatedly injected intravenously for 5 days to ICR male mice. The mice were organized into 4 groups of normal control group, diseased control group, test substance-administered group and pirfenidone-administered group.
A test substance was suspended in 0.5 w/v % carboxymethyl cellulose sodium (CMC) and 50 mg/kg thereof was repeatedly administered per os with stirring twice daily for 2 weeks using an oral sonde for rats. Pirfenidone was suspended in 0.5 w/v % CMC and 200 mg/kg thereof was repeatedly administered per os with stirring twice daily for 2 weeks using an oral sonde for rats. To the normal control group and the diseased control group, 0.5 w/v % CMC was repeatedly administered per os according to the same administration schedule. After finishing the administration period, both lungs were excised from the mice and their wet weight was measured.

NF-κB = assay: Suppressive action to NF-κB activation (luciferase reporter, HEK293T cells, TNF-α); assay type: cell-based, human; conditions: HEK293T cells with NF-κB reporter; test substance 25 μml/mL 1 hour, then TNF-α 10 ng/mL 5 hours; stimulated TNF-α = 100
Protocol: A preparation solution containing pGL4.32 [luc2P/NF-κB-RE/Hygrol] (Promega) which is an NF-κB reporter vector, pGL4.74 [hRluc/TK] (Promega) which is a control vector and Lipofectamine LTX (Life Technologies) which is a gene transfer agent was added to human embryo kidney cells (HEK293T cells) sown onto a […] whereupon there were prepared the cells which transiently express a reporter protein.
After 24 hours from the gene transfer, transient expression cells were peeled off by treating with trypsin, sown on a poly-lysine coated white 96-well plate and incubated for one night. The test substance was added to as to make its final concentration 25 μml/mL and, after pre-incubating for 1 hour, TNF-α was added thereto so as to make its final concentration 10 ng/mL followed by incubating for 5 hours more. The cells were dissolved and the activities of a firefly luciferase and a renilla luciferase were measured. Rate of the luminescent intensity by addition of each drug to the luminescent intensity by stimulation with TNF-α were calculated.

Row | SMILES | Copy Numbers per 10000 Copies of GAPDH CTGF (CTGF gene expression) | Copy Numbers per 10000 Copies of GAPDH TGF-β1 (TGF-β1 gene expression) | Copy Numbers per 10000 Copies of GAPDH Fibronectin [1] | Copy Numbers per 10000 Copies of GAPDH Col 1 (Col 1 gene expression) | Wet Lung Weight [2] | Luminescent Intensity to Stimulated TNF-α (%) (NF-κB)
1 | NC(=O)Nc1sc(-c2ccc(F)cc2)cc1C(N)=O [TPCA-1] | 461.2 copies per 10000 copies of GAP | 886.9 copies per 10000 copies of GAP | 3757.9 copies per 10000 copies of GAP | 840.4 copies per 10000 copies of GAP | – | –
2 | CCC(=O)O[C@]1(C(=O)SCF)[C@H](C)C[C@H]2[C@@H]3C[C@H](F)C4=CC(=O)C=C[C@]4(C)[C@@]3(F)[C@@H](O)C[C@@]21C [FP, fluticasone propionate] | 1166.8 copies per 10000 copies of GAP | 450.6 copies per 10000 copies of GAP | 3603.2 copies per 10000 copies of GAP | 593.3 copies per 10000 copies of GAP | – | –
3 | C[C@@H]1C[C@H]2[C@@H]3CCC4=CC(=O)C=C[C@]4(C)[C@@]3(F)[C@@H](O)C[C@]2(C)[C@@]1(O)C(=O)CO [DEX, dexamethasone] | 1010.1 copies per 10000 copies of GAP | 546.9 copies per 10000 copies of GAP | 4314.6 copies per 10000 copies of GAP | 610.7 copies per 10000 copies of GAP | – | –
4 | Cc1ccc(=O)n(-c2ccccc2)c1 [Pirfenidone] | 180.6 copies per 10000 copies of GAP | 962.5 copies per 10000 copies of GAP | 1689.7 copies per 10000 copies of GAP | 1027.6 copies per 10000 copies of GAP | 242 mg | –
5 | O=c1oc2c(OS(=O)(=O)c3cccc([N+](=O)[O-])c3)cccc2cc1NS(=O)(=O)c1cccc([N+](=O)[O-])c1 [Compound 17, 3-[(3-Nitrophenyl)sulfonylamino]-2-oxochromen-8-yl 3-nitrobenzenesulfonate] | – | – | – | – | – | 0.1%

Reference: US10004716B2, “Therapeutic/ preventive agent containing coumarin derivative as active ingredient” (NIPPON ZOKI PHARMACEUTICAL CO., LTD., priority 2014, dated 2018)
